Assay results taken from patent US10723701B2, “Quinolyl-substituted carboxylic acid compound or pharmaceutically acceptable salt thereof, pharmaceutical composition of the same, and use of the same” (BEIJING KONRUNS PHARMACEUTICAL CO., LTD., priority 2016, dated 2020).

Assays:
VEGFR2 = target: T1, VEGFR2 (Homo sapiens, UniProt P35968); assay: Radioactive protein kinase assay (33PanQinase Activity Assay), VEGFR2; settings: ATP 1.0 μM (Km), substrate Poly(Glu, Tyr) 4:1, 30° C., 60 minutes; read-out: Biochemical IC50 (nM) VEGFR2
T1 construct: purchased ProQinase GmbH
T1 sequence (P35968 20-1356): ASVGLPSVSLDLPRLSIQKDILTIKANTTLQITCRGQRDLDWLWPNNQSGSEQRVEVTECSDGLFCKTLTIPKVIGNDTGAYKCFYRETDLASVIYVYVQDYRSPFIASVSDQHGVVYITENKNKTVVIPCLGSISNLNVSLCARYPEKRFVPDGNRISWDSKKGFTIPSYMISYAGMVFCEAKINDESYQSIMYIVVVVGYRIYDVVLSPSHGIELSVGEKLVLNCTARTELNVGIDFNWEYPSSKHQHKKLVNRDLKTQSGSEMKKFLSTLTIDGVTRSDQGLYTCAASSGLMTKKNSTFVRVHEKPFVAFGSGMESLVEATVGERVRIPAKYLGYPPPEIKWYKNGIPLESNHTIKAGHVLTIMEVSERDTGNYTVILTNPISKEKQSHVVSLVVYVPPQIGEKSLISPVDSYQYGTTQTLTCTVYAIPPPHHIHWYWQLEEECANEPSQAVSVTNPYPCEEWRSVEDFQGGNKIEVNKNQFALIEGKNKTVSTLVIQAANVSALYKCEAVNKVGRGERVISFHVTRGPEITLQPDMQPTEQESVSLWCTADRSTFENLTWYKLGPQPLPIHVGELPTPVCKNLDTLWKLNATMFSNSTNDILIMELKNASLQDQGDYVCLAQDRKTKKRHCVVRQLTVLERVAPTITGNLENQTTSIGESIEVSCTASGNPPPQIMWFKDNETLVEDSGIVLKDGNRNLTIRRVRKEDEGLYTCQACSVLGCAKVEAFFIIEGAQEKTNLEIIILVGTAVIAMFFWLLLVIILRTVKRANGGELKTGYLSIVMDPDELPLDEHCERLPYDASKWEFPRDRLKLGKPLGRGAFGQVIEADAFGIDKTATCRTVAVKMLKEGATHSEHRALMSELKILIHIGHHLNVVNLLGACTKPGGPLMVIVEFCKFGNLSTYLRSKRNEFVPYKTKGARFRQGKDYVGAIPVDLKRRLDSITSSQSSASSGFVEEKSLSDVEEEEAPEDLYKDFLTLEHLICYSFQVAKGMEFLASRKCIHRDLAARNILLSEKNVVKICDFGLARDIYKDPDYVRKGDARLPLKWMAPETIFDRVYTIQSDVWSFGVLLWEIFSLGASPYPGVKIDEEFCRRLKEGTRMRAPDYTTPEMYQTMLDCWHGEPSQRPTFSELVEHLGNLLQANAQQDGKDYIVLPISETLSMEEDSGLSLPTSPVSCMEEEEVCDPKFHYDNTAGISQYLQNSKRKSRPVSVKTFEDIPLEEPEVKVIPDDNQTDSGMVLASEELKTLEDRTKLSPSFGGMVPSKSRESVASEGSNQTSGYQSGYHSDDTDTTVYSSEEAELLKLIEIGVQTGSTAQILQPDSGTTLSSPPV
Experimental: (§1) Biochemical inhibitory activity against AXL and VEGFR2 kinases: the biochemical IC50 values of the compound according to the present application for inhibiting AXL and VEGFR2 kinases were measured by ProQinase GmbH Company (Breisacher Str. 117, D-79106 Freiburg, Germany, www.proqinase.com). The specific steps are described as follows:
(§2) Firstly, the compound according to the present application was dissolved in dimethyl sulfoxide (DMSO) to prepare a stock solution of 1×10^−3 M. 10 different concentrations (from […] to 3×10^−10 M) were prepared by the serial semi-logarithmic dilution.
(§3) The biochemical activities of AXL and VEGFR2 were determined by the radioactive protein kinase assay (33PanQinase® Activity Assay). The assay was performed using a FlashPlates™ 96-well plate manufactured by Perkin Elmer (Boston, Mass., USA) with a reaction volume of 50 μL. The reaction mixture was added by a dropper in the following four steps:
(§4) (1) 20 μL of buffer solution (standard buffer);
(§5) (2) 5 μL of an aqueous solution of ATP;
(§6) (3) 5 μL of the compound (10% DMSO solution);
(§7) (4) 10 μL of a substrate/10 μL of a solution of the kinase.
(§8) The solution to be measured contains HEPES-NaOH (70 mM, pH=7.5), MgCl2 (3 mM), MnCl2 (3 mM), Na-orthovanadate (3 μM), DTT (1.2 mM), PEG20000 (50 μg/mL), ATP (in a concentration that is same as Km of the kinase and varies depending on different kinases), [γ-^33P]-ATP (about 4×10^5 cpm/well), kinase and substrate.
(§9) The reaction was carried out at 30° C. for 60 minutes, and 50 μL of 2% (v/v) phosphoric acid was added to terminate the reaction. The reaction mixture in each well was aspirated and washed twice with 200 μL of 0.9% (w/v) NaCl solution. The amount of the incorporation of ^33P was determined by using a microplate scintillation counter.

AXL = target: T2, AXL (Homo sapiens, UniProt P30530); assay: Radioactive protein kinase assay (33PanQinase Activity Assay), AXL; settings: ATP 0.3 μM (Km), substrate Poly(Glu, Tyr) 4:1, 30° C., 60 minutes; read-out: Biochemical IC50 (nM) AXL
T2 construct: purchased ProQinase GmbH
T2 sequence (P30530 26-894): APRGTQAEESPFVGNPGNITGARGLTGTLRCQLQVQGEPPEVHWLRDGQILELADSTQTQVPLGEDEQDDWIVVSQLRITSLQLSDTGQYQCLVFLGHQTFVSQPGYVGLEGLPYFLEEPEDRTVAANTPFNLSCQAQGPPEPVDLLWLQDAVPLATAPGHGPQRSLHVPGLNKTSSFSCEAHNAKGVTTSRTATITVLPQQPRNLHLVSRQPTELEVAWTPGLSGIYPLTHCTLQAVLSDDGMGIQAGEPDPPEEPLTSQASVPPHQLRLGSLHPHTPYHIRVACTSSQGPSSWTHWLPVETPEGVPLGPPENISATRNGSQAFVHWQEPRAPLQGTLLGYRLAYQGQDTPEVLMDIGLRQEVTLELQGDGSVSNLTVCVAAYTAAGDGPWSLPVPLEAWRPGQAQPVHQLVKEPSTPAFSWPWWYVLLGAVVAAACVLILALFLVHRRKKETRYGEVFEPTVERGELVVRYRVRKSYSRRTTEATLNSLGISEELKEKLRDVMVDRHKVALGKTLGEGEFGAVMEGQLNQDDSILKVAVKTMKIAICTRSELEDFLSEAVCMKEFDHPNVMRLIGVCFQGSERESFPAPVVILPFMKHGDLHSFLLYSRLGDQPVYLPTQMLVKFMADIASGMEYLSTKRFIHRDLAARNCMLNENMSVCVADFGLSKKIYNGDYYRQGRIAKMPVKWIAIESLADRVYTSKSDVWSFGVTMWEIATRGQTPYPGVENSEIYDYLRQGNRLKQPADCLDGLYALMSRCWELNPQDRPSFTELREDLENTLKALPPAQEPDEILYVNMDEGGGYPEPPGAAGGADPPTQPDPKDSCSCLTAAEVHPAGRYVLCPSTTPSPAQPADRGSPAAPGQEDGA
Experimental: as §1, §2, §3, §4, §5, §6, §7, §8, §9

## COc1cc2c(Oc3ccc(NC(=O)C4(C(=O)Nc5ccc(F)cc5)CC4)cc3F)ccnc2cc1OCC(=O)O [Example 1, 2-[[4-[2-fluoro-4-[[1-[(4-fluorophenyl)carbamoyl]cyclopropanecarbonyl]amino]phenoxy]-6-methoxy-7-quinolyl]oxy]acetic acid]
VEGFR2
  IC50: 24.5 nM
AXL
  IC50: 55.3 nM

## COc1cc2c(Oc3ccc(NC(=O)C4(C(=O)Nc5ccc(F)cc5)CC4)cc3F)ccnc2cc1OCCCC(=O)O [Example 3, 4-[[4-[2-fluoro-4-[[1-[(4-fluorophenyl)carbamoyl]cyclopropanecarbonyl]amino]phenoxy]-6-methoxy-7-quinolyl]oxy]butyric acid]
VEGFR2
  IC50: 6.56 nM
AXL
  IC50: 9.86 nM

## COc1cc2c(Oc3ccc(NC(=O)C4(C(=O)Nc5ccc(F)cc5)CC4)cc3F)ccnc2cc1OCCCC(=O)O [Example 4, Sodium 4-[[4-[2-fluoro-4-[[1-[(4-fluorophenyl)carbamoyl]cyclopropanecarbonyl]amino]phenoxy]-6-methoxy-7-quinolyl]oxy]butyrate]
VEGFR2
  IC50: 8.03 nM
AXL
  IC50: 9.05 nM

## COc1cc2c(Oc3ccc(NC(=O)C4(C(=O)Nc5ccc(F)cc5)CC4)cc3F)ccnc2cc1OCCCCC(=O)O [Example 6, 5-[[4-[2-fluoro-4-[[1-[(4-fluorophenyl)carbamoyl]cyclopropanecarbonyl]amino]phenoxy]-6-methoxy-7-quinolyl]oxy]valeric acid]
VEGFR2
  IC50: 6.6 nM
AXL
  IC50: 7.49 nM

## COc1cc2c(Oc3ccc(NC(=O)C4(C(=O)Nc5ccc(F)cc5)CC4)cc3F)ccnc2cc1OCCCCC(=O)O [Example 8, Triethylammonium 5-[[4-[2-fluoro-4-[[1-[(4-fluorophenyl)carbamoyl]cyclopropanecarbonyl]amino]phenoxy]-6-methoxy-7-quinolyl]oxy]valerate]
VEGFR2
  IC50: 8.66 nM
AXL
  IC50: 6.08 nM

## COc1cc2c(Oc3ccc(NC(=O)C4(C(=O)Nc5ccc(F)cc5)CC4)cc3F)ccnc2cc1OCCCCCC(=O)O [Example 9, 6-[[4-[2-fluoro-4-[[1-[(4-fluorophenyl)carbamoyl]cyclopropanecarbonyl]amino]phenoxy]-6-methoxy-7-quinolyl]oxy]caproic acid]
VEGFR2
  IC50: 16 nM
AXL
  IC50: 10.2 nM

## COc1cc2c(Oc3ccc(NC(=O)C4(C(=O)Nc5ccc(F)cc5)CC4)cc3F)ccnc2cc1OCCCCCC(=O)O [Example 10, Sodium 6-[[4-[2-fluoro-4-[[1-[(4-fluorophenyl)carbamoyl]cyclopropanecarbonyl]amino]phenoxy]-6-methoxy-7-quinolyl]oxy]caproate]
VEGFR2
  IC50: 13.9 nM
AXL
  IC50: 11.9 nM

## COc1cc2c(Oc3ccc(NC(=O)C4(C(=O)Nc5ccc(F)cc5)CC4)cc3F)ccnc2cc1OCCCCCC(=O)O [Example 11, Potassium 6-[[4-[2-fluoro-4-[[1-[(4-fluorophenyl)carbamoyl]cyclopropanecarbonyl]amino]phenoxy]-6-methoxy-7-quinolyl]oxy]caproate]
VEGFR2
  IC50: 13.6 nM
AXL
  IC50: 14.9 nM

## COc1cc2c(Oc3ccc(NC(=O)C4(C(=O)Nc5ccc(F)cc5)CC4)cc3F)ccnc2cc1OCCCCCC(=O)O [Example 12, Calcium 6-[[4-[2-fluoro-4-[[1-[(4-fluorophenyl)carbamoyl]cyclopropanecarbonyl]amino]phenoxy]-6-methoxy-7-quinolyl]oxy]caproate (1:1)]
VEGFR2
  IC50: 10.4 nM
AXL
  IC50: 10.7 nM

## COc1cc2c(Oc3ccc(NC(=O)C4(C(=O)Nc5ccc(F)cc5)CC4)cc3F)ccnc2cc1OCCCCCC(=O)O [Example 13, 1,3-dihydroxy-2-(hydroxymethyl)propan-2-ammonium 6-[[4-[2-fluoro-4-[[1-[(4-fluorophenyl)carbamoyl]cyclopropanecarbonyl]amino]phenoxy]-6-methoxy-7-quinolyl]oxy]caproate]
VEGFR2
  IC50: 12.6 nM
AXL
  IC50: 8.63 nM

## COc1cc2c(Oc3ccc(NC(=O)C4(C(=O)Nc5ccc(F)cc5)CC4)cc3F)ccnc2cc1OCCCCCCC(=O)O [Example 14, 7-[[4-[2-fluoro-4-[[1-[(4-fluorophenyl)carbamoyl]cyclopropanecarbonyl]amino]phenoxy]-6-methoxy-7-quinolyl]oxy]heptanoic acid]
VEGFR2
  IC50: 13.6 nM
AXL
  IC50: 13.7 nM

## COc1cc2c(Oc3ccc(NC(=O)C4(C(=O)Nc5cccc(Cl)c5)CC4)cc3F)ccnc2cc1OCCCCCCC(=O)O [Example 16, Calcium 7-[[4-[2-fluoro-4-[[1-[(3-chlorophenyl)carbamoyl]cyclopropanecarbonyl]amino]phenoxy]-6-methoxy-7-quinolyl]oxy]heptanoate]
VEGFR2
  IC50: 18.9 nM
AXL
  IC50: 19.8 nM

## CCOc1cc2c(Oc3ccc(NC(=O)C4(C(=O)Nc5ccc(F)cc5)CC4)cc3F)ccnc2cc1OCC(=O)O [Example 18, Potassium 2-[[4-[2-fluoro-4-[[1-[(4-fluorophenyl)carbamoyl]cyclopropanecarbonyl]amino]phenoxy]-6-ethoxy-7-quinolyl]oxy]acetate]
VEGFR2
  IC50: 9.86 nM
AXL
  IC50: 10.7 nM
